Measured values as given in US20240053332A1, “Methods and Compositions Utilising Vitamin B12 Binding” (priority 2020, published 2024).

How the values were obtained:
[1] = system: Bacteroides thetaiotaomicron (Bt); experiment: growth of Bt dependent upon vitB12; assay type: cell-based
Procedure: Less growth is seen with serial 10-fold dilutions of B12-bound BEVs. By contrast and as controls, no growth is seen by adding 1 mM vitB12 directly to the cultures or by adding BEVs alone with no bound vitB12.

[2] = molecular target: BtuG2; experiment: affinity of BtuG2 protein for B12; assay type: binding
From the text: We believe that it is possible to exploit this tight interaction in the same way as the Biotin-avidin system. We have shown that it is possible to attach protein-linkers to vitamin B12, allow vitamin B12 to become attached to proteins that have the necessary exposed amino acid side chains. […] The attachment is specific and strong. • (b) With Mologic, we have shown that a B12-maleimide will bind to a lactate dehydrogenase antibody, allowing the complex to be used in an immunoassay. This provides the proof of principal that the B12-B12 binding protein system can be exploited in therapeutic assays and diagnostics in the same way as biotin-avidin.

cobalamin [vitB12]
growth of Bt in vitB12-deficient media ([1]; FIG. 1 left panel, 1 mM vitB12, bound to BEVs or added directly to the cultures): no growth
vitB12 concentration giving maximal growth of Bt ([1]; FIG. 1 right panel, no growth in its absence (0 nM)): 100 nM
affinity of BtuG2 for B12 [2]: femtomolar region
